Data reported in US8686035B2, “Composition and method for promoting hair growth” (R-Tech Ueno, Ltd., priority 2003, dated 2014).
Where “and” joins values, the source holds several entries; their conditions need not be identical. Equal values may be shown once. Entries after “also recorded” stand apart in the source; their conditions may differ.

Legend:
Format in all cases: in vivo
[1] = test system: C3H/HeN mice; assay: Hair growth after topical application to clipped dorsal skin, macroscopic score (Example 1); design: key to Hair Growth Score: −: no hair growth observed; ±: hair growth≦10% of the clipped area; +: hair growth 10-40% of the clipped area; ++: hair growth 40-80% of the clipped area; +++: hair growth ≧80% of the clipped area; settings: for Hair Growth Score / animals on which hair growth was observed: topical once daily; for Hair Growth Score: individual animals; for animals on which hair growth was observed: 0.1%, 30 days treatment period, 3 animals per group
Description: (§1) Eight-weeks-old male C3H/HeN mice were used. The hair on the back was clipped by electric clipper so that the hair in the clipped area was removed as much as possible. Three days after the clipping, mice without visible scratches were selected and used in this study. Each group consisted of 3 animals. After group assignment, the groups were housed separately in aluminum cages (3 animals/cage, 180 mm W×300 mm D×130 mm H; Nippon Cage, Ltd., Japan).
(§2) Each test compound was dissolved in 70% (w/w) aqueous ethanol. Each dose formulation of test compound was evenly applied topically once daily (100 μL per mouse) to the clipped dorsal skin area (approximately 2×4 cm), except for Saturday and Sunday, for 30 days. The control group received an equal amount of the vehicle in the same manner.
Macroscopic observations of the hair growth were performed 14, 16, 18, 21, 23, 25, 28 and 30 days after the start of the treatment. Hair growth was scored according to the scale below:
− no hair growth observed
± hair growth≦10% of the clipped area
+ hair growth 10-40% of the clipped area
++ hair growth 40-80% of the clipped area
+++ hair growth ≧80% of the clipped area

[2] = test system: C3H/HeN mice; assay: Thickness of grown-up hair (Example 3); settings: 0.1% treated area, hairs collected 31 days after start of treatment of Example 1, n=3
Description: 31 days after the start of the treatment conducted in Example 1, grown-up hairs in the treated area and hairs in the untreated area (i.e. non clipped area) were collected, respectively. Enlarged photomicrographs of the collected hairs were taken. Thickness of the randomly selected each ten hairs were measured and calculated the average.

[3] = test system: C3H/HeN mice; assay: Hair growth after topical application to clipped dorsal skin, macroscopic score (Example 2); design: key to Hair Growth Score: −: no hair growth observed; ±: hair growth≦10% of the clipped area; +: hair growth 10-40% of the clipped area; ++: hair growth 40-80% of the clipped area; +++: hair growth ≧80% of the clipped area; settings: topical once daily; for Hair Growth Score: 0.1% in 75% aqueous ethanol, individual animals
Description: as §1
as §2, with “Test compound” for “Each test compound”, “in 75%” for “in 70% (w/w)”, “ethanol. The” for “ethanol. Each dose”, “compound (compound E)” for “compound”, “for 23” for “for 30”
Macroscopic observations of the hair growth were performed 14, 16, 18, 21 and 23 days after the start of the treatment. Hair growth was scored according to the scale shown as above. In the 0.1% compound E-treated group, hair growth was observed on 3 out of 3 animals.

[4] = 0.1% in 70% (w/w) aqueous ethanol, day 14 of treatment
[5] = 0.1% in 70% (w/w) aqueous ethanol, day 16 of treatment
[6] = 0.1% in 70% (w/w) aqueous ethanol, day 18 of treatment
[7] = 0.1% in 70% (w/w) aqueous ethanol, day 21 of treatment
[8] = 0.1% in 70% (w/w) aqueous ethanol, day 23 of treatment
[9] = 0.1% in 70% (w/w) aqueous ethanol, day 25 of treatment
[10] = 0.1% in 70% (w/w) aqueous ethanol, day 28 of treatment
[11] = 0.1% in 70% (w/w) aqueous ethanol, day 30 of treatment

## CC(C)OC(=O)CCC/C=C\CC1C(O)CC(O)C1CCC1(CCc2ccccc2)OCCO1 (stereo not drawn) [Compound B, 13,14-dihydro-15,15-ethylenedioxy-17-phenyl-18,19,20-trinor-PGF2α isopropyl ester]
[1]; [4]
  Hair Growth Score: −
[1]; [5]
  Hair Growth Score: −
[1]; [6]
  Hair Growth Score: ± (hair growth≦10% of the clipped area) and − (2×)
[1]; [7]
  Hair Growth Score: ± (hair growth≦10% of the clipped area)
[1]; [8]
  Hair Growth Score: + (hair growth 10-40% of the clipped area)
[1]; [9]
  Hair Growth Score: ++ (hair growth 40-80% of the clipped area); also recorded: + (hair growth 10-40% of the clipped area)
[1]; [10]
  Hair Growth Score: ++ (hair growth 40-80% of the clipped area)
[1]; [11]
  Hair Growth Score: ++ (hair growth 40-80% of the clipped area)
[1]; 0.1% in 70% (w/w) aqueous ethanol, day 30 of treatment, listed as compound B
  Hair Growth Score: ++ (hair growth 40-80% of the clipped area)
[2]
  Hair thickness, μm mean ± SE: 33.3 ± 0.7 μm

## CCCCCCCC1(CCC2C(O)CC(O)C2C/C=C\CCCC(=O)OCC)OCCO1 (stereo not drawn) [Compound E, 13,14-dihydro-15,15-ethylenedioxy-20-ethyl-PGF2α ethyl ester]
[3]; day 14 of treatment
  Hair Growth Score: −
[3]; day 16 of treatment
  Hair Growth Score: −
[3]; day 18 of treatment
  Hair Growth Score: ± (hair growth≦10% of the clipped area) (2×) and −
[3]; day 21 of treatment
  Hair Growth Score: ++ (hair growth 40-80% of the clipped area); also recorded: + (hair growth 10-40% of the clipped area)
[3]; day 23 of treatment
  Hair Growth Score: + (hair growth 10-40% of the clipped area); also recorded: ++ (hair growth 40-80% of the clipped area)
[3]; 0.1%, 23 days treatment period, 3 animals per group
  animals on which hair growth was observed: 3 out of 3

## CCCCCCCC1(CCC2C(O)CC(O)C2C/C=C\CCCC(=O)OC(C)C)OCCCO1 (stereo not drawn) [Compound C, 13,14-dihydro-15,15-trimethylenedioxy-20-ethyl-PGF2α isopropyl ester]
[1]; [4]
  Hair Growth Score: −
[1]; [5]
  Hair Growth Score: −
[1]; [6]
  Hair Growth Score: − (2×) and ± (hair growth≦10% of the clipped area)
[1]; [7]
  Hair Growth Score: − (2×) and ± (hair growth≦10% of the clipped area)
[1]; [8]
  Hair Growth Score: − (2×) and ± (hair growth≦10% of the clipped area)
[1]; [9]
  Hair Growth Score: − (2×) and + (hair growth 10-40% of the clipped area)
[1]; [10]
  Hair Growth Score: − (2×) and + (hair growth 10-40% of the clipped area)
[1]; [11]
  Hair Growth Score: − (2×) and + (hair growth 10-40% of the clipped area)
[1]
  animals on which hair growth was observed: 1 out of 3

## CCCCCCCC1(CCC2C(O)CC(O)C2C/C=C\CCCC(=O)OC(C)C)OCCO1 (stereo not drawn) [Compound A, 13,14-dihydro-15,15-ethylenedioxy-20-ethyl-PGF2α isopropyl ester]
[1]; 0.01% and 0.1% treated groups
  hair growth, dose dependence: dose-dependent hair growth
[1]; 0.01% in 70% (w/w) aqueous ethanol, day 14 of treatment
  Hair Growth Score: −
[1]; 0.01% in 70% (w/w) aqueous ethanol, day 16 of treatment
  Hair Growth Score: −
[1]; 0.01% in 70% (w/w) aqueous ethanol, day 18 of treatment
  Hair Growth Score: − (2×) and ± (hair growth≦10% of the clipped area)
[1]; 0.01% in 70% (w/w) aqueous ethanol, day 21 of treatment
  Hair Growth Score: − (2×) and ± (hair growth≦10% of the clipped area)
[1]; 0.01% in 70% (w/w) aqueous ethanol, day 23 of treatment
  Hair Growth Score: − (2×) and ± (hair growth≦10% of the clipped area)
[1]; 0.01% in 70% (w/w) aqueous ethanol, day 25 of treatment
  Hair Growth Score: − and + (hair growth 10-40% of the clipped area) (2×)
[1]; 0.01% in 70% (w/w) aqueous ethanol, day 28 of treatment
  Hair Growth Score: + (hair growth 10-40% of the clipped area); also recorded: ++ (hair growth 40-80% of the clipped area)
[1]; 0.01% in 70% (w/w) aqueous ethanol, day 30 of treatment
  Hair Growth Score: + (hair growth 10-40% of the clipped area); also recorded: ++ (hair growth 40-80% of the clipped area)
[1]; [4]
  Hair Growth Score: −
[1]; [5]
  Hair Growth Score: ± (hair growth≦10% of the clipped area) (2×) and −
[1]; [6]
  Hair Growth Score: ± (hair growth≦10% of the clipped area)
[1]; [7]
  Hair Growth Score: + (hair growth 10-40% of the clipped area)
[1]; [8]
  Hair Growth Score: ++ (hair growth 40-80% of the clipped area)
[1]; [9]
  Hair Growth Score: ++ (hair growth 40-80% of the clipped area)
[1]; [10]
  Hair Growth Score: +++ (hair growth ≧80% of the clipped area)
[1]; [11]
  Hair Growth Score: +++ (hair growth ≧80% of the clipped area)
[2]
  Hair thickness, μm mean ± SE: 34.1 ± 1.6 μm

## CCCCCCCC(CCC1C(O)CC(O)C1C/C=C\CCCC(=O)OC(C)C)(OC)OC (stereo not drawn) [Compound D, 13,14-dihydro-15,15-dimethoxy-20-ethyl-PGF2α isopropyl ester]
[1]; [4]
  Hair Growth Score: −
[1]; [5]
  Hair Growth Score: − (2×) and ± (hair growth≦10% of the clipped area)
[1]; [6]
  Hair Growth Score: − (2×) and ± (hair growth≦10% of the clipped area)
[1]; [7]
  Hair Growth Score: − (2×) and + (hair growth 10-40% of the clipped area)
[1]; [8]
  Hair Growth Score: − (2×) and + (hair growth 10-40% of the clipped area)
[1]; [9]
  Hair Growth Score: − (2×) and + (hair growth 10-40% of the clipped area)
[1]; [10]
  Hair Growth Score: − and ++ (hair growth 40-80% of the clipped area) and ± (hair growth≦10% of the clipped area)
[1]; [11]
  Hair Growth Score: − and ++ (hair growth 40-80% of the clipped area) and ± (hair growth≦10% of the clipped area)
[1]
  animals on which hair growth was observed: 2 out of 3
